Measured values from ChEMBL document CHEMBL1143663, “Brucella suis histidinol dehydrogenase: synthesis and inhibition studies of a series of substituted benzylic ketones derived from histidine” (Bioorg Med Chem, 2007).

T1: Histidinol dehydrogenase (Brucella suis biovar 1 (strain 1330), UniProt Q8G2R2)
T1 sequence (Q8G2R2 whole entry): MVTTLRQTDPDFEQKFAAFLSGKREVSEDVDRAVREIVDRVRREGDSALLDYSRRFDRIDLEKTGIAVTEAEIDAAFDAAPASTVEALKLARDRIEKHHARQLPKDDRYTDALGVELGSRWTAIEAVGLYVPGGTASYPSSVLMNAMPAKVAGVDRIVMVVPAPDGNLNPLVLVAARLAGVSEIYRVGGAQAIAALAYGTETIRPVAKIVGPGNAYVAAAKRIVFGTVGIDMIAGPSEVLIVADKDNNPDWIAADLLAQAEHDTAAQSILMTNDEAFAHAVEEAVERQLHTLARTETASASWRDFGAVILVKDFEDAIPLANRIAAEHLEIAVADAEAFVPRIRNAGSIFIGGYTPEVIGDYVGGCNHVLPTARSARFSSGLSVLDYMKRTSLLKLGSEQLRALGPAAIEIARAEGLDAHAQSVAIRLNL

B1: Histidinol dehydrogenase (Brucella suis biovar 1 (strain 1330)), Q8G2R2 (protein)
chain: T1 sequence (Q8G2R2 whole entry)

Molecular target: T1, Histidinol dehydrogenase
Assay: Inhibition of Brucella suis histidinol dehydrogenase

Molecule | IC50
N[C@@H](Cc1c[nH]cn1)C(=O)Cc1ccc(Cl)cc1 | 12 nM
N[C@@H](Cc1c[nH]cn1)C(=O)Cc1ccc(Oc2ccccc2)cc1 | 16 nM
N[C@@H](Cc1c[nH]cn1)C(=O)Cc1ccc(-c2ccccc2)cc1 | 12.5 nM
Cc1ccc(CC(=O)[C@@H](N)Cc2c[nH]cn2)cc1 | 15 nM
N[C@@H](Cc1c[nH]cn1)C(=O)Cc1ccc(Br)cc1 | 6 nM
N[C@@H](Cc1c[nH]cn1)C(=O)Cc1ccc(F)cc1 | 15 nM
N[C@@H](Cc1c[nH]cn1)C(=O)Cc1cccc2ccccc12 | 200 nM
N[C@@H](Cc1c[nH]cn1)C(=O)Cc1c(F)c(F)c(F)c(F)c1F | 70 nM
N[C@@H](Cc1c[nH]cn1)C(=O)Cc1ccc(OCc2ccccc2)cc1 | 3 nM
N[C@@H](Cc1c[nH]cn1)C(=O)Cc1ccc2c(c1)OCO2 | 25 nM
N[C@@H](Cc1c[nH]cn1)C(=O)Cc1ccc(Cl)c(Cl)c1 | 20 nM
N[C@@H](Cc1c[nH]cn1)C(=O)Cc1ccc2ccccc2c1 | 14.5 nM
N[C@@H](Cc1c[nH]cn1)C(=O)Cc1ccc(F)cc1F | 10 nM
COc1ccc(CC(=O)[C@@H](N)Cc2c[nH]cn2)cc1 | 150 nM
N[C@@H](Cc1c[nH]cn1)C(=O)Cc1ccccc1 | 40 nM

Substrate: N[C@H](CO)Cc1c[nH]cn1
Assay: Activity of Brucella suis histidinol dehydrogenase

Molecule | Km
B1 | 12 µM
